Holding throughout (assay type): binding
Experiment [1] has as its target T1, hMcl-1 (Homo sapiens, UniProt Q07820).
T1 construct: His tag (N); made in house; host or cells: E. coli BL21 (DE3) gold pLysS
Briefly: 1D 1H NMR aliphatic region chemical shift perturbation / titration. To be noted: for CSP1 (Table S3) / CSP1 (Table S4): total shift of the two peaks overlapping at -0.616 ppm. The text has this: (§1) Perturbations observed by ligand binding can be measured and qualitatively used to roughly rank order compound binding, or compound mixtures in this case, in the initial screening campaign (Figure 2). As a control, we used a potent hMcl-1 binding ligand A1210477[37] (Figure 2A).
(§2) NMR spectra were acquired on a Bruker Avance III 700 MHz spectrometer equipped with a TCI cryoprobe. All NMR data were processed and analyzed using TopSpin 4.1.0 (Bruker, Billerica, MA). For the mixture screening, each of the 96 mixtures was dissolved into a 5 mm NMR tube to a final concentration of 2 mM in the presence of 20 μM hMcl-1 in a buffer containing 40 mM Tris pH = 7.5, 150 mM NaCl, and 1 mM DTT. For each mixture, 1D ^1H-aliph experiments were acquired. For ranking purposes, a total chemical shift perturbation generated by each mixture to the five peaks around 0 ppm in the 1D ^1H-aliph spectra of hMcl-1 was considered (Figure 4). 2D-[^13C,^1H]-HSQC experiments were acquired with 20 μM protein using 32 scans with 2048 and 256 complex data points in the ^1H and ^13C dimensions, respectively, at 298 K.

Experiment [2] has as its target T1, hMcl-1. Put plainly: Isothermal titration calorimetry. The procedure:
Isothermal titration calorimetry measurements were performed using an Affinity ITC autosampler from TA Instruments (New Castle, DE). The titrations were performed in a direct fashion by titrating the ligand solution into the protein. All the measurements were performed at 25 °C dissolving the agents in 50 mM phosphate at pH 7.5, 150 mM NaCl, and a final DMSO concentration of 1%. To test compound 12, the syringe was filled with a 2 mM solution of compound 12, and 20 injections of 5 μL each were performed into the cell containing a 100 μM solution of the protein. The injections were made at 200 s intervals with a stirring speed of 75 rpm. To test compound 50, the syringe was filled with a 500 μM solution of compound 50, and 20 injections of 5 μL each were performed into the cell containing a 50 μM solution of the protein. The injections were made at 200 s intervals with a stirring speed of 75 rpm. All the solutions were kept in the autosampler at 4 °C. The analysis of the thermodynamics signatures and for dissociation constant determination was performed by NanoAnalyze software (TA Instruments, New Castle, DE) and subsequently exported into Microsoft Excel.
(Isothermal titration calorimetry measures the heat released or taken up as one component is titrated into another.)

Experiment [3] deals with T1, hMcl-1. Briefly: DELFIA displacement assay, biotinylated BH3 peptide from hMcl-1. To be noted: for IC50: hMcl-1 16 nM, room temperature. The protocol:
as §1
(§3) Each well of 96-well streptavidin-coated plates (PerkinElmer) was incubated with 100 μL of a 600 ng/mL biotinylated-BH3 peptide of sequence biotin-amino-hexanoic acid-[…]-NH2 for 2 h and washed 3 times with a wash solution (PerkinElmer). Subsequently, a mixture containing 11 μL of protein and a serial dilution of the test compounds as well as 89 μL of an Eu-N1-labeled anti-6x-His antibody (PerkinElmer) was added to each well and incubated for 2 h. Plates were then washed 3 times, and 200 μL of enhancement solution (PerkinElmer) was added to each well. After a 10 min incubation, fluorescence measurements were taken with a Victor X5 microplate reader with the excitation and emission wavelengths of 340 and 615, respectively. All the incubations were performed at room temperature. The final protein concentrations used for hBfl-1 and hMcl-1 were 15 and 16 nM, respectively and the final anti-6x-His antibody used was 22.2 ng/well. Fluorescence readings were normalized to those of 1% DMSO-treated wells and reported as % inhibition. Prism 9 (GraphPad) was used to calculate IC50 values.

In another experiment the target is T2, hBfl-1 (Homo sapiens, UniProt Q16548).
T2 sequence (Q16548 1-175): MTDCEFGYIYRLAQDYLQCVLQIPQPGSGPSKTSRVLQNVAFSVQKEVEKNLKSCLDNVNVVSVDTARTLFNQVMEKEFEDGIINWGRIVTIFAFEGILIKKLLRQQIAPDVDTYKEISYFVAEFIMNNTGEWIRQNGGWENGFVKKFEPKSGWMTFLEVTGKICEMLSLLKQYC
Put plainly: DELFIA displacement assay, hBfl-1. To be noted: hBfl-1 15 nM. The protocol: as §3

The next experiment has as its target T3, 13Cε-Met-labeled hMcl-1 (Homo sapiens, UniProt Q07820).
T3 construct: His tag (N); made in house; host or cells: E. coli BL21 (DE3) gold pLysS
Put plainly: 2D [13C,1H] correlation spectra with 13Cε-Met-labeled hMcl-1.
Description: To further corroborate the possible binding location and pose of the agent, we collected NMR experiments with a selectively ^13C^ε-Met-labeled hMcl-1.[1] In the sequence of hMcl-1, there are 4 Met residues, where two located outside the biding pocket, namely, Met 170 and Met 199, while two Met residues are directly present in the BH3 binding pocket, namely, Met 231 and Met 250 (Figure 8). […] Smaller yet still relatively large perturbations were also observed in the resonances of Met 250, located also across the indole in our model but not as directly juxtaposed as Met 231 with our ligand (Figure 8). […] This piece of data supports the location of the binding of our agent and possibly also corroborates its predicted binding pose.
as §2, with “2D-[^13C,^1H]-HSQC experiments were acquired with 20 μM protein using 32 scans with 2048 and 256 complex data points in the ^1H and ^13C dimensions, respectively, at 298 K.” left out

[4] abbreviates: 25 °C, pH 7.5, 1% DMSO, read-out: Kd by isothermal titration calorimetry.
Setting [5] is: supplementary CSV, values match ITC, read-out: Kd (uM) (n=2).

Each structure is given as a SMILES string. Several values for one entry are separate records, joined by “and”; a condition that tells them apart may be missing. Equal entries are not always repeated. Where two headings read alike, the source gives them in different places.

T1 sequence (Q07820 172-323): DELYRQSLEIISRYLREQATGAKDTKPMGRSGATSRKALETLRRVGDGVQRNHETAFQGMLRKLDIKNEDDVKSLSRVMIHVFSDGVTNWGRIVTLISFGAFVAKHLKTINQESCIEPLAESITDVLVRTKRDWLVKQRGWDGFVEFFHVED
T3 sequence (Q07820 172-323): as above

For `COc1cc(C)c(C(C)C)cc1S(=O)(=O)N[C@H](CC(=O)O)C(=O)N[C@@H](CC1CCCCC1)C(N)=O` [Compound 12, (R)-4-(((S)-1-Amino-3-cyclohexyl-1-oxopropan-2-yl)amino)-3-((5-isopropyl-2-methoxy-4-methylphenyl)sulfonamido)-4-oxobutanoic Acid], the “dissociation constant estimated by NMR titration” value on hMcl-1 [1] (1D 1H NMR, hMcl-1 20 μM) was “triple-digit micromolar”. For the same compound, the “CSP1 (Table S3)” value on hMcl-1 [1] (listed as Compound (12)) is given as “++ (0.05 ppm < CSP < 0.1 ppm)”. Besides, the Kd on hMcl-1 [2] (setting [4]) was ~450 µM.

As to `COc1cc(C)c(C(C)C)cc1S(=O)(=O)N[C@@H](CCC(=O)O)C(=O)N[C@@H](CC1CCCCC1)C(N)=O` [Compound 14], the “CSP1 (Table S3)” value on hMcl-1 [1] is recorded as “+ (0.01 ppm < CSP < 0.05 ppm)”.

In the case of `COc1ccc2[nH]cc(CC(NC(=O)C3CC4CCCCC4N3C(=O)C(CC(=O)O)NS(=O)(=O)c3cc(C(C)C)c(C)cc3OC)C(N)=O)c2c1` (stereo not shown) [Compound 59], the Kd at hMcl-1 [2] (setting [4]) came out at 4.62 ± 0.37 µM; on hMcl-1 [2] (setting [5]), 4.62 ± 0.4 µM.

As to `COc1ccc(C(C)C)cc1S(=O)(=O)NC(CC(=O)O)C(=O)N1C(C(=O)NC(Cc2c[nH]c3ccccc23)C(N)=O)CC2CCCCC21` (stereo not shown) [Compound 60], the values for the Kd at hMcl-1 [2] (setting [4]) and at hMcl-1 [2] (setting [5]) were 2.84 ± 0.67 µM and 2.84 ± 0.7 µM, respectively.

One may read the IC50 as the point on the concentration scale where inhibition reaches its midpoint. For the compound `Cc1nn(C)c(COc2ccc(N3CCN(S(=O)(=O)N(C)C)CC3)cc2)c1-c1cccc2c(CCCOc3cccc4ccccc34)c(C(=O)O)n(CCN3CCOCC3)c12` [Compound A1210477], the LE on hMcl-1 [3] (from DELFIA IC50) is ~0.17. The IC50 on hMcl-1 [3] (read-out: IC50, displacement of biotinylated BH3 peptide from hMcl-1 (DELFIA)) was determined as 14 nM.

Regarding `COc1cc(C)c(C(C)C)cc1S(=O)(=O)N[C@H](CCC(=O)O)C(=O)N[C@@H](CC1CCCCC1)C(N)=O` [Compound 15], at hMcl-1 [1], the “CSP1 (Table S3)” value is on record as “+ (0.01 ppm < CSP < 0.05 ppm)”.

Regarding `COc1cc(C)c(C(C)C)cc1S(=O)(=O)N[C@H](CC(=O)O)C(=O)N[C@@H](CC1CCCCC1)C(=O)N[C@H](Cc1c[nH]c2ccccc12)C(N)=O` [Compound 21, (R)-4-(((S)-1-(((R)-1-Amino-3-(1H-indol-3-yl)-1-oxopropan-2-yl)amino)-3-cyclohexyl-1-oxopropan-2-yl)amino)-3-((5-isopropyl-2-methoxy-4-methylphenyl)sulfonamido)-4-oxobutanoic Acid], the “CSP in the 1D-1H-aliphatic region of hMcl-1, comparison among P4 compounds” value on hMcl-1 [1] (20 μM hMcl-1, compound 100 μM) is “bigger CSP”. The Kd on hMcl-1 [1] (1D 1H NMR, hMcl-1 20 μM, read-out: dissociation constant estimated by NMR titration) was ~30000 nM. The “CSP1 (Table S4)” value at hMcl-1 [1] is listed as “+++ (0.1 ppm < CSP < 0.13 ppm)”.

Regarding `COc1cc(C)c(C(C)C)cc1S(=O)(=O)NC(CC(=O)O)C(=O)N1C(C(=O)NC(Cc2c[nH]c3ccccc23)C(N)=O)CC2CCCCC21` [Compound 50, (3R)-4-((2S)-2-(((S)-1-Amino-3-(1H-indol-3-yl)-1-oxopropan-2-yl)carbamoyl)octahydro-1H-indol-1-yl)-3-((5-isopropyl-2-methoxy-4-methylphenyl)sulfonamido)-4-oxobutanoic Acid], the “activity against hBfl-1 in DELFIA displacement assay” value on hBfl-1 was “inactive”. For the same compound, on hMcl-1 [1] (shift of the peak at -0.08 ppm, 1D-1H-aliphatic spectrum), the “CSP2 (Table S4)” value is on record as “+ (0.01 ppm < CSP < 0.05 ppm)”. The “CSP1 (Table S4)” value on hMcl-1 [1] is “+++ (0.1 ppm < CSP < 0.13 ppm)”. Also, at hMcl-1 [2] (25 °C), the “ΔH, isothermal titration calorimetry” value was -10 kcal/mol. Also, the Kd at hMcl-1 [2] (setting [4]) was ~2 µM and 1.71 µM; on hMcl-1 [2] (setting [5]), 1.71 ± 0.3 µM. On hMcl-1 [2] (from ITC Kd), the LE is on record as ~0.16. The koff at 13Cε-Met-labeled hMcl-1 (20 μM 13Cε-Met hMcl-1, read-out: koff, estimated upper limit from Met 231 chemical shift differences (slow exchange)) was < 519 s⁻¹. Further, the “dissociation constant corresponding to off-rate” value on 13Cε-Met-labeled hMcl-1 (assuming diffusion limited on rate of 10^9 M^–1 s^–1) was “low micromolar”. On hMcl-1 [3] (read-out: IC50, displacement of biotinylated-BIM peptide from hMcl-1 (DELFIA)), the IC50 came out at 7500 nM.

As for `COc1cc(C)c(C(C)C)cc1S(=O)(=O)N[C@H](CC(=O)O)C(=O)N[C@@H](CC1CCCCC1)C(N)=O` [Compound 13], the “CSP1 (Table S3)” value at hMcl-1 [1] (listed as Compound (13)) is “+ (0.01 ppm < CSP < 0.05 ppm)”.

These data come from paper PMC10388297, “Mixture-Based Screening of Focused Combinatorial Libraries by NMR: Application to the Antiapoptotic Protein hMcl-1” (Journal of Medicinal Chemistry, 2023).
